Results: US20260265251A1 (priority 2023, published 2026)

The compounds below were run on SK-MEL-3 cells (assay: SK-MEL-3 cell proliferation assay). Conditions: Homo sapiens, SK-MEL3, 72 h, read-out: SK-MEL-3 IC50.
Type: cell-based
For `N#Cc1ccc(N2CCc3nc4[nH]c(=O)[nH]c4cc3C2)cc1F` [Example 53, 7-(3-fluoro-4-cyanophenyl)-1,3,5,6,7,8-hexahydro-2H-imidazo[4,5-b][1,6]naphthyridin-2-one], the IC50 was 9.6 nM.

Same assay, conditions: Homo sapiens, SK-MEL3; SK-MEL-3 cells, 72 hours, CellTiter-Glo; read-out: SK-MEL-3 IC50
`O=c1[nH]c2cc3cc(-c4ncc(F)cc4Cl)ccc3nc2[nH]1` [Example 10, 7-(3-chloro-5-fluoropyridin-2-yl)-1,3-dihydro-2H-imidazo[4,5-b]quinolin-2-one] was tested, and the IC50 was 1.8 nM. `N#Cc1ccc(N2CCc3nc4[nH]c(=O)[nH]c4cc3C2)c(F)c1` [Example 52, 7-(2-fluoro-4-cyanophenyl)-1,3,5,6,7,8-hexahydro-2H-imidazo[4,5-b][1,6]naphthyridin-2-one] was tested, and the IC50 was 4.1 nM. With `CCC1=CCN(c2ccc3nc4[nH]c(=O)[nH]c4cc3c2Cl)CC1` [Example 82, 8-chloro-7-(4-ethyl-3,6-dihydropyridin-1(2H)-yl)-1,3-dihydro-2H-imidazo[4,5-b]quinolin-2-one] the IC50 was 509 nM. `O=c1[nH]c2cc3c(Cl)c(N4CC5(CCC5)C4)ccc3nc2[nH]1` [Example 76, 8-chloro-7-(2-azaspiro[3.3]heptan-2-yl)-1,3-dihydro-2H-imidazo[4,5-b]quinolin-2-one] gave an IC50 of 2.3 nM. In the case of `Cc1ccc(-c2ccc3nc4[nH]c(=O)[nH]c4cc3c2F)cc1` [Example 68, 8-fluoro-7-(p-tolyl)-1,3-dihydro-2H-imidazo[4,5-b]quinolin-2-one], the IC50 is reported as 2 nM. `COc1ccc(-c2ccc3nc4[nH]c(=O)[nH]c4cc3c2)c(Cl)n1` [Example 7, 7-(2-chloro-6-methoxypyridin-3-yl)-1,3-dihydro-2H-imidazo[4,5-b]quinolin-2-one] gave an IC50 of 0.4 nM. Work on `O=c1[nH]c2cc3c(OC(F)F)c(-c4ccc(F)cc4)ccc3nc2[nH]1` [Example 77, 8-(difluoromethoxy)-7-(4-fluorophenyl)-1,3-dihydro-2H-imidazo[4,5-b]quinolin-2-one] yielded an IC50 of 4.4 nM. `O=c1[nH]c2cc3c(nc2[nH]1)CCN(c1ccc(Cl)cc1Cl)C3` [Example 47, 7-(2,4-dichlorophenyl)-1,3,5,6,7,8-hexahydro-2H-imidazo[4,5-b][1,6]naphthyridin-2-one] was tested, and the IC50 was 2.7 nM. In the case of `O=c1[nH]c2cc3c(nc2[nH]1)CCN(c1cn(C(F)F)nc1Cl)C3` [Example 51, 7-(3-chloro-1-(difluoromethyl)-1H-pyrazol-4-yl)-1,3,5,6,7,8-hexahydro-2H-imidazo[4,5-b][1,6]naphthyridin-2-one], the IC50 is reported as 74.9 nM. Compound `O=c1[nH]c2cc3cc(-c4ccc(Cl)nc4Cl)ccc3nc2[nH]1` [Example 18, 7-(2,6-dichloropyridin-3-yl)-1,3-dihydro-2H-imidazo[4,5-b]quinolin-2-one] has an IC50 of 0.6 nM. In the case of `O=c1[nH]c2cc3c(C(F)(F)F)c(-c4ccccc4)ccc3nc2[nH]1` [Example 80, 7-phenyl-8-(trifluoromethyl)-1,3-dihydro-2H-imidazo[4,5-b]quinolin-2-one], the IC50 is reported as 0.5 nM. Work on `Cc1ccc(-c2ccc3nc4c(cc3c2Cl)CC(=O)N4)cc1` [Example 2, 5-chloro-6-(p-tolyl)-1,3-dihydropyrrolo[2,3-b]quinolin-2-one] yielded an IC50 of 37.9 nM. With `O=c1[nH]c2cc3cc(-c4cnn(C(F)F)c4)ccc3nc2[nH]1` [Example 11, 7-(1-(difluoromethyl)-1H-pyrazol-4-yl)-1,3-dihydro-2H-imidazo[4,5-b]quinolin-2-one] the IC50 was 0.8 nM. With `O=c1[nH]c2cc3c(Cl)c(-c4ccc(Cl)nn4)ccc3nc2[nH]1` [Example 73, 8-chloro-7-(6-chloropyridazin-3-yl)-1,3-dihydro-2H-imidazo[4,5-b]quinolin-2-one] the IC50 was 1.6 nM. `O=c1[nH]c2cc3c(Cl)c(-c4ccc(F)cc4)ccc3nc2[nH]1` [Example 66, 8-chloro-7-(4-fluorophenyl)-1,3-dihydro-2H-imidazo[4,5-b]quinolin-2-one] gave an IC50 of 0.9 nM. In the case of `O=c1[nH]c2cc3c(Cl)c(-c4ccc(C(F)F)cc4)ccc3nc2[nH]1` [Example 67, 8-chloro-7-(4-(difluoromethyl)phenyl)-1,3-dihydro-2H-imidazo[4,5-b]quinolin-2-one], the IC50 is reported as 0.4 nM. In the case of `O=c1[nH]c2cc3c(nc2[nH]1)CCN(c1cccc(Cl)c1)C3` [Example 59, 7-(3-chlorophenyl)-1,3,5,6,7,8-hexahydro-2H-imidazo[4,5-b][1,6]naphthyridin-2-one], the IC50 is reported as 2.3 nM. For `O=c1[nH]c2cc3c(nc2[nH]1)CCN(c1ccccc1)C3` [Example 20, 7-phenyl-1,3,5,6,7,8-hexahydro-2H-imidazo[4,5-b][1,6]naphthyridin-2-one], the IC50 was 4.5 nM. Work on `O=c1[nH]c2cc3c(Cl)c(-c4ccc(F)cc4Cl)ccc3nc2[nH]1` [Example 83, 8-chloro-7-(2-chloro-4-fluorophenyl)-1,3-dihydro-2H-imidazo[4,5-b]quinolin-2-one] yielded an IC50 of 0.4 nM. `O=c1[nH]c2cc3c(nc2[nH]1)CCN(c1cccc(OC(F)(F)F)c1)C3` [Example 55, 7-(3-(trifluoromethoxy)phenyl)-1,3,5,6,7,8-hexahydro-2H-imidazo[4,5-b][1,6]naphthyridin-2-one] showed an IC50 of 15.6 nM. Work on `O=c1[nH]c2cc3cc(-c4cn(C(F)F)nc4Cl)ccc3nc2[nH]1` [Example 12, 7-(3-chloro-1-(difluoromethyl)-1H-pyrazol-4-yl)-1,3-dihydro-2H-imidazo[4,5-b]quinolin-2-one] yielded an IC50 of 0.3 nM. With `O=c1[nH]c2cc3c(Cl)c(-c4ccc(C(F)F)cn4)ccc3nc2[nH]1` [Example 74, 8-chloro-7-(5-(difluoromethyl)pyridin-2-yl)-1,3-dihydro-2H-imidazo[4,5-b]quinolin-2-one] the IC50 was 0.7 nM. `O=c1[nH]c2cc3cc(-c4cn(C(F)F)nc4C(F)(F)F)ccc3nc2[nH]1` [Example 31, 7-(1-(difluoromethyl)-3-(trifluoromethyl)-1H-pyrazol-4-yl)-1,3-dihydro-2H-imidazo[4,5-b]quinolin-2-one] was tested, and the IC50 was 2.5 nM. `Cc1ccc(-c2ccc3nc4[nH]c(=O)[nH]c4cc3c2Cl)cc1` [Example 1, 8-chloro-7-(p-tolyl)-1,3-dihydro-2H-imidazo[4,5-b]quinolin-2-one] was tested, and the IC50 was 0.4 nM. `Cc1ccc(-c2ccc3nc4[nH]c(=O)[nH]c4nc3c2Cl)cc1` [Example 92, 5-chloro-6-(p-tolyl)-1,3-dihydro-2H-imidazo[4,5-b]quinoxalin-2-one] was tested, and the IC50 was 88.2 nM. `O=c1[nH]c2cc3c(nc2[nH]1)CCN(c1ccc(OC(F)(F)F)cc1Cl)C3` [Example 54, 7-(2-chloro-4-(trifluoromethoxy)phenyl)-1,3,5,6,7,8-hexahydro-2H-imidazo[4,5-b][1,6]naphthyridin-2-one] showed an IC50 of 198 nM. With `O=c1[nH]c2cc3c(Cl)c(-c4ncc(F)cn4)ccc3nc2[nH]1` [Example 71, 8-chloro-7-(5-fluoropyrimidin-2-yl)-1,3-dihydro-2H-imidazo[4,5-b]quinolin-2-one] the IC50 was 8.2 nM. Work on `O=c1[nH]c2cc3c(C(F)(F)F)c(-c4ccc(F)cc4)ccc3nc2[nH]1` [Example 84, 7-(4-fluorophenyl)-8-(trifluoromethyl)-1,3-dihydro-2H-imidazo[4,5-b]quinolin-2-one] yielded an IC50 of 1.2 nM. `O=c1[nH]c2cc3cc(-c4ccc(F)cc4)ccc3nc2[nH]1` [Example 9, 7-(4-fluorophenyl)-1,3-dihydro-2H-imidazo[4,5-b]quinolin-2-one] was tested, and the IC50 was 1.7 nM. With `COc1cc(F)ccc1-c1ccc2nc3[nH]c(=O)[nH]c3cc2c1` [Example 6, 7-(4-fluoro-2-methoxyphenyl)-1,3-dihydro-2H-imidazo[4,5-b]quinolin-2-one] the IC50 was 3.6 nM.
